Patent publication US5298496A (Chinoin Gyogyszer- ES Vegyeszeti Termekek Gyara Rt., priority 1990, dated 1994)

Columns and labels:
[1] = UV spectrum shift of dilute aqueous SIN 1 solution (about 10 μg/ml) with cyclodextrins, diffuse lighting, room temperature; type: physicochemical; conditions: for efficiency sequence concluded from the UV spectrum shift: stabilizing effect on SIN 1, ranking in words
Protocol: The solutions were stored at room temperature (20°-22° C.) in diffuse lighting and in certain periods (daily) the UV spectrum of the solutions were registered in the interval between 220-350 nm. As a control only the aqueous solution, and the 0,05N hydrochloric acid solution were used respectively. […] The pH values of the applied cyclodextrin solutions of greatest concentration differed only within ±0.2 unit from the pH value of distilled water.
The decomposition hindering, slow down effect of DIMEB (2,6-di-O-methyl-β-cyclodextrin) is definite too. In the presence of 20 mg/ml DIMEB the spectrum of the solution has shown only a shift within 1 nm after a 6 day storage. We also tested the stabilizing effect of TRIMEB (2,3,6-tri-O-methyl-β-cyclodextrin), of γ-CO, β-CO and of hydroxypropyl-β-CO. The efficiency sequence concluded from the UV spectrum shift was as follows: […]

[2] = tested on: potassium depolarized strips; experiment: Relaxing effect on potassium depolarized strips
[3] = Thin-layer chromatography of SIN 1 decomposition with and without CDPSI; type: physicochemical; conditions: 1 day of storage
Protocol: In such a concentration range spectrophotometric measurement dose not give a descriptive picture. For this reason the decomposition degree was determined by thin-layer chromatography in the following way: From the solutions 10 μl were dropwise added on a Kieselgel 60 F254 plate (10×10 cm, Merck). Running mixture: cyclohexane:ethyl-acetate in a ratio of 1:1. The running tub was let for 30 minutes to saturation. On the plate also SIN 1C reference solution was dropwise added. On the dropping spot the plate was dried in a cold air flow protected from light and it was let to run up to a […] height. During the running period the running tub was put on a dark place. After evaporation of the solvent the plate was evaluated visually in UV light at 254 nm.

[4] = Hydrolytic decomposition of SIN 1 to SIN 1C as function of pH (literature / background); type: physicochemical; conditions: diffused lighting
Protocol: It can be generally said that the sydnonimine derivatives are sensitive to extreme pH values, and are decomposed quickly. […] The process is strictly pH dependent, e.g. to achieve a decomposition of 10% (SIN 1C) 53 sec. at a pH value of 8, 15 hours at a pH of 6, 67 days at a pH of 4, and 13 years at a pH of 1-2 are necessary. (Chem. Pharm. Bull. 19/6 1079, 1971). […] The decomposition can be followed from the UV spectrum directly.

[5] = HPLC decomposition test of SIN 1 in pH 7 phosphate buffer, 4 days; type: physicochemical
Protocol: (§1) The quantitive measurement of the decomposition degree was carried out by the HPLC method too.
(§2) HPPLC measurement circumstances to the separation of SIN 1-SIN 1 C
(§3) ______________________________________
(§4) Beckman 114 M Solvent Delivery Module,
(§5) 165 Variable Wavelength Detektor, Hewlett-Packard
(§6) Column: Ultrasphere ODS analytical column […],
(§7) Eluent: 0.05 M sodium acetate:
(§8) flowing rate: 1.0 ml/min.
(§9) chart speed: 0.5 cm/min.
(§10) retention times: tR SIN1: 2.9 min.
2. The test was carried out in a pH 7 phosphate buffer too, choosing similar concentration circumstances.
The chromatograms obtained after 4 days storage were evaluated.

rats = experiment: Cardioprotective activity on rats, p.o.; type: in vivo
[6] = HPLC decomposition test of SIN 1 in pH 6.3 phosphate buffer, 5 weeks; type: physicochemical; conditions: room temperature, protected from light, complex in pH 6.3 phosphate buffer with 50 mg/ml CDPSI, control in distilled water
Protocol: as §1, §2, §3, §4, §5, §6, §7, §8, §9, §10
1. […] Complex was formed with 50 mg/ml (100 fold quantity) of CDPSI. After storage of 5 weeks the HPLC chromatograms were evaluated.

[7] = Change of λ max of SIN 1 with time in phosphate buffers of pH 6.4, 7.0 and 7.6 with and without CDPSI (UV spectrophotometry); type: physicochemical; conditions: for λ max.: 1 mg/ml SIN 1, +CDPSI 20 mg/ml
[8] = Membrane permeation test, diffusion of SIN 1 through Visking type cellophane membrane; type: physicochemical; conditions: SIN 1 alone, 1 mg/ml, 37°±1° C.
Protocol: Visking type cellophane membrane (average pore diameter 24 Angstroms) was used. […] The solutions were stirred by magnetic stirrers and were kept at 37°±1° C. […] The test was repeated in the presence of different cyclodextrins at different concentrations in the donor cell compartment.

[9] = Transformation SIN 1→SIN 1A→SIN 1C in the presence of cyclodextrins in 0.02M acetate buffer pH 5.5 (HPLC); type: physicochemical
Source text: (The SIN 1A was detected by HPLC)

[10] = 4 days, 0,5 mg/ml SIN 1, 50 mg/ml CDPSI

COC[C@H]1O[C@@H]2O[C@H]3[C@H](O)[C@@H](OC)[C@@H](O[C@H]4[C@H](O)[C@@H](OC)[C@@H](O[C@H]5[C@H](O)[C@@H](OC)[C@@H](O[C@H]6[C@H](O)[C@@H](OC)[C@@H](O[C@H]7[C@H](O)[C@@H](OC)[C@@H](O[C@H]8[C@H](O)[C@@H](OC)[C@@H](O[C@H]1[C@H](O)[C@H]2OC)O[C@@H]8COC)O[C@@H]7COC)O[C@@H]6COC)O[C@@H]5COC)O[C@@H]4COC)O[C@@H]3COC [DIMEB, 2,6-di-O-methyl-β-cyclodextrin]
shift of the UV spectrum ([1]; 6 day storage, 20 mg/ml DIMEB): ≤ 1 nm | efficiency sequence concluded from the UV spectrum shift [1]: CDPSI>DIMEB>TRIMEB>βCO≥HPβCO

N=c1c[n+](N2CCOCC2)[n-]o1 [SIN 1, 3-morpholino-sydnonimine]
T/2 (duration of action) ([2]; 1 or 2 μM): 47 min | T/max (time of maximal relaxation) ([2]; after administration, 1 or 2 μM): 18 min | inhibition at 1 µM ([2]; read-out: maximal relaxation of sustained contraction): 58% | unchanged SIN 1 (TLC) ([3]; pH 7 buffer): still perceptible | unchanged SIN 1 (TLC) ([3]; pH 7.6 buffer): practically no longer detectable | time to practically complete transformation into SIN 1C ([1]; aqueous solution without cyclodextrin, stored similarly): 2 to 3 days | decomposition of control solution ([1]; distilled water, 1 week, without CDPSI, in words): practically decomposed | time of decomposition in diluted aqueous solution [4]: 1 to 3 days | pH value of the solutions after storage ([5]; 4 days): 6.57 | Active ingredient content: SIN 1 [5, 10]: 0.041 mg/mL | Active ingredient content: SIN 1C [5, 10]: 0.125 mg/mL | activity in words (rats; 1 mg/kg): does not exert an activity | cardioprotective activity (rats; 1 mg/kg (complex: same active ingredient)): 11% | Active ingredient content: SIN 1 [6]: 0,016 | Δλ ([7]; buffer pH 6,4, after 6 days): 12 nm | λ max. ([7]; pH 6.4, 0 days (at preparation)): 291.5 nm | λ max. ([7]; pH 6.4, 1 day): 289.0 nm | λ max. ([7]; pH 6.4, 4 days): 284.9 nm | λ max. ([7]; pH 6.4, 6 days): 279.8 nm | λ max. ([7]; pH 7.0, 0 days (at preparation)): 290.6 nm | λ max. ([7]; pH 7.0, 1 day): 280.4 nm | λ max. ([7]; pH 7.0, 6 days): 277.3 nm | λ max. ([7]; pH 7.6, 0 days (at preparation)): 291.2 nm | λ max. ([7]; pH 7.6, 1 day): 276.4 nm | λ max. ([7]; pH 7.6, 6 days): 277.6 nm | T 50% (diffusion half life of SIN 1) [8]: 54 min

COC[C@H]1O[C@@H]2O[C@H]3[C@H](OC)[C@@H](OC)[C@@H](O[C@H]4[C@H](OC)[C@@H](OC)[C@@H](O[C@H]5[C@H](OC)[C@@H](OC)[C@@H](O[C@H]6[C@H](OC)[C@@H](OC)[C@@H](O[C@H]7[C@H](OC)[C@@H](OC)[C@@H](O[C@H]8[C@H](OC)[C@@H](OC)[C@@H](O[C@H]1[C@H](OC)[C@H]2OC)O[C@@H]8COC)O[C@@H]7COC)O[C@@H]6COC)O[C@@H]5COC)O[C@@H]4COC)O[C@@H]3COC [TRIMEB, 2,3,6-tri-O-methyl-β-cyclodextrin]
efficiency sequence concluded from the UV spectrum shift [1]: CDPSI>DIMEB>TRIMEB>βCO≥HPβCO

OC[C@H]1O[C@@H]2O[C@H]3[C@H](O)[C@@H](O)[C@@H](O[C@H]4[C@H](O)[C@@H](O)[C@@H](O[C@H]5[C@H](O)[C@@H](O)[C@@H](O[C@H]6[C@H](O)[C@@H](O)[C@@H](O[C@H]7[C@H](O)[C@@H](O)[C@@H](O[C@H]8[C@H](O)[C@@H](O)[C@@H](O[C@H]1[C@H](O)[C@H]2O)O[C@@H]8CO)O[C@@H]7CO)O[C@@H]6CO)O[C@@H]5CO)O[C@@H]4CO)O[C@@H]3CO [βCO, β-cyclodextrin]
efficiency sequence concluded from the UV spectrum shift [1]: CDPSI>DIMEB>TRIMEB>βCO≥HPβCO | SIN 1A found vs control [9]: more than 7 fold
